Reference: US8691982B2, “Pyrazolo[1,5-a]-1,3,5-triazine derivatives, preparation thereof, and therapeutic use thereof” (Centre National de la Recherche Scientifique, priority 2009, dated 2014)
Counter-ions that a name gives are not always drawn.

Tests used:
CDK2/cyclin A = biological target: T1, CDK2/cyclin A (Homo sapiens, UniProt P24941); test: CDK2/cyclin A kinase assay; type: biochemical; conditions: 15 μM ATP, 30° C., histone H1 substrate
T1 construct: host or cells: insect cells
Experimental: (§1) Buffer C: 60 mM β-glycerophosphate, 15 mM p-nitrophenyl phosphate, 25 mM Mops (pH 7.2), 5 mM EGTA, 15 mM MgCl2, 1 mM DTT, 1 mM sodium vanadate, 1 mM phenyl phosphate, 10 μg leupeptin/ml, 10 μg aprotinin/ml and 100 μM benzamidine.
(§2) Controls were performed with appropriate dilutions of dimethyl sulfoxide.
(§3) ATP (3000 Ci/mmol; 10 mCi/ml) in a final volume of 30 μl. After incubation for 30 minutes at 30° C., aliquotes of 25 μl of the supernatant were spotted onto Whatman P81 phosphocellulose paper filters and, 20 seconds later, the filters were washed five times (for at least five minutes each time) in a solution of 10 ml of phosphoric acid/liter of water. The wet filters were subjected to counting in the presence of an ACS scintillation fluid from Amersham. CDK2/cyclin A (human, recombinant, expressed in insect cells) was assayed as described for CDK1/cyclin B. CDK5/p25 was reconstituted by mixing equal amounts of recombinant mammalian CDK5 and p25 expressed in E. coli as a GST (glutathione-S-transferase) fusion protein and purified by affinity chromatography on glutathione-agarose (p25 is a truncated version of p35, the 35 kDa CDK5 activator). […] DYRK1A (human, recombinant, expressed in E. coli as a GST fusion protein) was purified on glutathione-agarose, assayed as described for CDK1/cyclin B with myelin basic protein (1 mg/ml) as substrate.

CDK1/cyclin B = CDK1/cyclin B kinase assay; type: biochemical, starfish (Marthasterias glacialis); conditions: 15 μM ATP, 30° C., histone H1 substrate
Experimental: Homogenization buffers: 60 mM β-glycerophosphate, 15 mM p-nitrophenyl phosphate, 25 mM Mops (pH 7.2), 15 mM EGTA, 15 mM MgCl2, 1 mM DTT, 1 mM sodium vanadate, 1 mM NaF, 1 mM phenyl phosphate, 10 μg leupeptin/ml, 10 μg aprotinin/ml, 10 μg soybean trypsin inhibitor/ml and 100 μM benzamidine.
as §1, §2, §3

CDK5/p25 = CDK5/p25 (Homo sapiens, UniProt Q00535); test: CDK5/p25 kinase assay; type: biochemical, mammalian; conditions: 15 μM ATP, 30° C., histone H1 substrate
Experimental: as §1, §2, §3

GSK-3α/β = GSK-3α/β kinase assay; type: biochemical, pig; conditions: 15 μM ATP, 30° C., buffer A, GS-1 substrate
CDK9/cyclin T = biological target: T2, CDK9/cyclin T (Homo sapiens, UniProt P50750); test: CDK9/cyclin T kinase assay; type: biochemical; conditions: 15 μM ATP, 30° C., pRB fragment substrate
T2 construct: host or cells: insect cells

DYRK1A = DYRK1A (Homo sapiens, UniProt Q13627); test: DYRK1A kinase assay; type: biochemical; conditions: 15 μM ATP, 30° C., myelin basic protein substrate
Experimental: (§4) The blank values were subtracted and the activities calculated as μmoles of phosphate incorporated per 10 minutes of incubation. […] Controls were performed with appropriate dilutions of dimethyl sulfoxide.
as §3

CK1δ/ε = CK1δ/ε kinase assay; type: biochemical, pig; conditions: 15 μM ATP, 30° C., CK1-specific peptide substrate
Experimental: as §4, §3

[1] = test system: SH-SY5Y human neuroblastoma cells; test: SH-SY5Y cell viability (MTS reduction); type: cell-based; conditions: SH-SY5Y cell line, cell viability by MTS
Experimental: A Cell Titer 96® kit containing the MTS reagent was purchased from Promega (Madison, Wis., USA). The protease inhibitor cocktail came from Roche and the fetal calf serum (FCS) came from Invitrogen. The reagents not listed came from Sigma, unless otherwise indicated.
The SH-SY5Y human neuroblastoma cell line was grown in a DMEM medium with L-glutamine from Invitrogen (Cergy Pontoise, France), antibiotics and 10% by volume of FCS from Invitrogen. The general culture conditions were a 5% CO2 atmosphere and a temperature of 37° C. The culture plates and other disposable plastic tools were supplied by Corning (Corning, N.Y., USA). The treatments with the compounds of the invention were carried out on cultures in exponential growth over time, and indicated concentrations. The control experiments were carried out also using suitable dilutions of DMSO.
The cell viability was determined by measuring the reduction of 3-(4,5-dimethylthiazol-2-yl)-5-(3-carboxymethoxyphenyl)-2-(4-sulfophenyl)-2H-tetrazolium (MTS).

[2] = test system: Human chronic lymphoid leukemia (B-CLL) lymphocytes; test: B-CLL cell apoptosis (annexin V / propidium iodide, flow cytometry); type: cell-based; conditions: Homo sapiens, B-CLL cells from patients
Experimental: The CLL cells were isolated from heparinized blood of untreated patients after informed consent.
The mononuclear cells were isolated by centrifugation on a Lymphosep density gradient (Biowest). […] When the percentage of CD19+/CD5+ cells was less than 90%, the B lymphocytes were enriched using the kit II for B-cell enrichment by immunomagnetic depletion of the monocytes, NK cells, granulocytes and T lymphocytes (Miltenyi Biotech).
After incubation, the B-CLL cells were harvested, washed in PBS and resuspended in 100 μl of 1× binding buffer containing FITC-conjugated annexin V and propidium iodide (Beckman Coulter Apoptosis Detection Kit). After incubation for 10 min on ice, the cells were analyzed by flow cytometry and the percentage of cells undergoing apoptosis was determined.

Chain of CDK5/p25 (Q00535 whole entry, species assumed): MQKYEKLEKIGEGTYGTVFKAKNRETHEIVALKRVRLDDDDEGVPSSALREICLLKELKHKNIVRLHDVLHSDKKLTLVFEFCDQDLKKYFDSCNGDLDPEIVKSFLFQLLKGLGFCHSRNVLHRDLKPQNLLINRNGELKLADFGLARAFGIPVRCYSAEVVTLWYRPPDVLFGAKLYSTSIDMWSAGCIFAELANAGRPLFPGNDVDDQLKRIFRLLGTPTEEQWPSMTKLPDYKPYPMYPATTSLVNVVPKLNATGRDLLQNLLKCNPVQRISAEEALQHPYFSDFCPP
Chain of CDK5/p25 (Q15078 99-307 partner limits assumed, species assumed): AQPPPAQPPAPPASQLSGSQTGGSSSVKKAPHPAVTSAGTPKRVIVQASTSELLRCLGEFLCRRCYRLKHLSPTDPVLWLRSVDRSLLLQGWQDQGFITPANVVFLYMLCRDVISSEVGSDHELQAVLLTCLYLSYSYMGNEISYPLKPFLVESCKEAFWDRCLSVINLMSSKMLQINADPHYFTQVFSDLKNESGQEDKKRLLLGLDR
T2 sequence (P50750 whole entry, the tested form may be a part): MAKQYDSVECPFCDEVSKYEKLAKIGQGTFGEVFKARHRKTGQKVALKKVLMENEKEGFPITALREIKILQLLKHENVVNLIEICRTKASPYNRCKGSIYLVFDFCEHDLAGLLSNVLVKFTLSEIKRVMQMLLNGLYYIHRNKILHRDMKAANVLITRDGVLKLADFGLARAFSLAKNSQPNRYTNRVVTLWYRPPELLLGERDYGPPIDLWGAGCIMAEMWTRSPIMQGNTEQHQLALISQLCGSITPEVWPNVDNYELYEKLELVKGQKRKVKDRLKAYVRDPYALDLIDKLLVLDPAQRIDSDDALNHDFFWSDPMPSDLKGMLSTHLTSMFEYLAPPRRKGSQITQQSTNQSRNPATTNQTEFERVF
T2 sequence (O60563 whole entry partner, the tested form may be a part): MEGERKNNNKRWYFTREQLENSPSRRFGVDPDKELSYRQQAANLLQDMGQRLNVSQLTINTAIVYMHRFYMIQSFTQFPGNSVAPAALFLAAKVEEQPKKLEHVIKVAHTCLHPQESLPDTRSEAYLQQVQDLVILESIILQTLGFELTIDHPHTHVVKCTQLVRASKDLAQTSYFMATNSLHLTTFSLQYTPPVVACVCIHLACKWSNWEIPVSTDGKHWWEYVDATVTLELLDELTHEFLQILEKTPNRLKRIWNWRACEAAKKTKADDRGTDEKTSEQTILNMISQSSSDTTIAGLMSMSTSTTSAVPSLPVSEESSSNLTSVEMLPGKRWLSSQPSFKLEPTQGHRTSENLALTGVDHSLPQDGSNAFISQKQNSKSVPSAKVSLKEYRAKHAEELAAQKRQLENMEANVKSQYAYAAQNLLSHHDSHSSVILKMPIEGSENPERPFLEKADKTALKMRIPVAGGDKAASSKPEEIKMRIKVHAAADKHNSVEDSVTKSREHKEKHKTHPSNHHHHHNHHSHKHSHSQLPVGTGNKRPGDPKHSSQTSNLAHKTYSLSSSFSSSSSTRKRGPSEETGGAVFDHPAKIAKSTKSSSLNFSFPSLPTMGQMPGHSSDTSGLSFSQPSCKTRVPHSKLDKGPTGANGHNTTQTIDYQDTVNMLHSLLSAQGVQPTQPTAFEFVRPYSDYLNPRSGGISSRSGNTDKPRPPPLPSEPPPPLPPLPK

| SMILES | IC50 (CDK2/cyclin A) | IC50 (CDK1/cyclin B) | IC50 (CDK5/p25) | IC50 (GSK-3α/β) | IC50 (CDK9/cyclin T) | IC50 (DYRK1A) | IC50 (CK1δ/ε) | IC50 ([1]; Homo sapiens) | IC50 [1] | IC50 [2] |
| --- | --- | --- | --- | --- | --- | --- | --- | --- | --- | --- |
| CC(C)c1cnn2c(NCc3ccc(-c4ccccn4)cc3)nc(N[C@@H](CO)[C@H](C)O)nc12 [Compound 15, Fumarate salt of (2S,3S)-2-(1,3-dihydroxybut-2-ylamino)-8-isopropyl-4-[4-(pyridin-2-yl)benzylamino]pyrazolo[1,5-a]-1,3,5-triazine] | 0.031 µM | 0.042 µM | 0.045 µM | 2.2 µM | 0.06 µM | 0.53 µM | 0.12 µM | – | – | – |
| CC(C)c1cnn2c(NCc3ccc(-c4ccsc4)cc3)nc(N[C@H](CO)[C@@H](C)O)nc12 (stereo in doubt) [Compound 16, (2R,3R)-2-(1,3-dihydroxybut-2-ylamino)-8-isopropyl-4-[4-(thiophen-3-yl)benzylamino]pyrazolo[1,5-a]-1,3,5-triazine] | 0.034 µM | 0.059 µM | 0.05 µM | 4.2 µM | 0.091 µM | 1.8 µM | 0.19 µM | – | – | – |
| CCc1cnn2c(NCc3ccc(-c4ccccn4)cc3)nc(N[C@H](CC)CO)nc12 [Compound 36, (R)-8-ethyl-2-(1-hydroxybut-2-ylamino)-4-[4-(pyridin-2-yl)benzylamino]pyrazolo[1,5-a]-1,3,5-triazine] | – | – | 0.022 µM | 1.6 µM | – | 1.6 µM | 0.58 µM | 0.026 µM | – | – |
| CC(C)c1cnn2c(NCc3ccc(-c4ccccn4)cc3)nc(N[C@H](CO)[C@@H](C)O)nc12 (stereo in doubt) [Compound 12, (2R,3R)-2-(1,3-dihydroxybut-2-ylamino)-8-isopropyl-4-[4-(pyridin-2-yl)benzylamino]pyrazolo[1,5-a]-1,3,5-triazine] | 0.022 µM | 0.029 µM | 0.029 µM | 3 µM | 0.06 µM | 0.47 µM | 0.2 µM | – | – | – |
| CC(C)c1cnn2c(NCc3ccc(-c4ccccn4)cc3)nc(N[C@@H](CO)[C@H](C)O)nc12 (stereo in doubt) [Compound 14, (2S,3S)-2-(1,3-dihydroxybut-2-ylamino)-8-isopropyl-4-[4-(pyridin-2-yl)benzylamino]pyrazolo[1,5-a]-1,3,5-triazine] | 0.042 µM | 0.042 µM | 0.044 µM | 2.5 µM | 0.053 µM | 0.58 µM | 0.12 µM | – | – | – |
| CC(C)c1cnn2c(NCc3ccc(-c4ccccn4)cc3)nc(NC(CO)CO)nc12 [Compound 17, 2-(1,3-dihydroxyprop-2-ylamino)-8-isopropyl-4-[4-(pyridin-2-yl)benzylamino]pyrazolo[1,5-a]-1,3,5-triazine] | 0.062 µM | 0.07 µM | 0.053 µM | 4.4 µM | 0.068 µM | 0.92 µM | 0.092 µM | – | – | – |
| CC(C)c1cnn2c(NCc3ccc(-c4ccccn4)cc3)nc(NC[C@H](O)CO)nc12 [Compound 9, Fumarate salt of (S)-2-(1,2-dihydroxypropan-3-ylamino)-8-isopropyl-4-[4-(pyridin-2-yl)benzylamino]pyrazolo[1,5-a]-1,3,5-triazine] | 0.012 µM | 0.019 µM | 0.014 µM | 1.8 µM | 0.038 µM | 0.26 µM | 0.061 µM | – | – | – |
| CC[C@H](CO)Nc1nc(NCc2ccccc2)n2ncc(C(C)C)c2n1 [N-&-N1, reference compound] | – | 0.09 µM | – | 11 µM | – | 1.3 µM | 1.2 µM | 2.6 µM | – | 1.42 µM |
| CC(C)c1cnn2c(NCc3ccc(-c4ccccc4)nc3)nc(N[C@@H](CO)[C@H](C)O)nc12 [Compound 21] | – | – | 0.043 µM | 1.2 µM | – | 1.2 µM | 0.11 µM | – | – | – |
| CC(C)c1cnn2c(NCc3ccc(-c4ccccn4)cc3)nc(N[C@H](CO)C(C)C)nc12 [Compound 28, (S)-2-(1-hydroxy-3-methylbut-2-ylamino)-8-isopropyl-4-[4-(pyridin-2-yl)benzylamino]pyrazolo[1,5-a]-1,3,5-triazine] | – | – | 0.12 µM | 7 µM | – | 0.58 µM | 0.41 µM | – | – | – |

More lines, main results first:

| IC50 (CDK2/cyclin A) | IC50 (CDK1/cyclin B) | IC50 (CDK5/p25) | IC50 (GSK-3α/β) | IC50 (CDK9/cyclin T) | IC50 (DYRK1A) | IC50 (CK1δ/ε) | IC50 ([1]; Homo sapiens) | IC50 [1] | SMILES | IC50 [2] |
| --- | --- | --- | --- | --- | --- | --- | --- | --- | --- | --- |
| – | – | < 0.03 µM | 1.2 µM | – | 1.3 µM | 0.13 µM | – | – | CC(C)c1cnn2c(NCc3ccc(-c4ccccc4)nc3)nc(N[C@H](CO)[C@@H](C)O)nc12 [Compound 23] | – |
| – | – | 0.034 µM | 1.4 µM | – | 0.82 µM | 0.93 µM | 0.05 µM | – | CCc1cnn2c(NCc3ccc(-c4ccccn4)cc3)nc(N[C@@H](CC)CO)nc12 [Compound 35, (S)-8-ethyl-2-(1-hydroxybut-2-ylamino)-4-[4-(pyridin-2-yl)benzylamino]pyrazolo[1,5-a]-1,3,5-triazine] | – |
| 0.049 µM | 0.051 µM | 0.064 µM | 2.8 µM | 0.061 µM | 0.61 µM | 0.12 µM | – | – | CC(C)c1cnn2c(NCc3ccc(-c4ccccn4)cc3)nc(NC(CO)CO)nc12 [Compound 18, Fumarate salt of 2-(1,3-dihydroxyprop-2-ylamino)-8-isopropyl-4-[4-(pyridin-2-yl)benzylamino]pyrazolo[1,5-a]-1,3,5-triazine] | – |
| 0.016 µM | 0.023 µM | 0.031 µM | 3.5 µM | 0.03 µM | 0.5 µM | 0.21 µM | – | 0.08 µM | CC[C@@H](CO)Nc1nc(NCc2ccc(-c3ccccn3)cc2)n2ncc(C(C)C)c2n1 [Compound 5, Fumarate salt of (S)-2-(1-hydroxybut-2-ylamino)-8-isopropyl-4-[4-(pyridin-2-yl)benzylamino]pyrazolo[1,5-a]-1,3,5-triazine] | – |
| – | – | 0.025 µM | 1 µM | – | 0.71 µM | 0.36 µM | < 0.03 µM | – | CCc1cnn2c(NCc3ccc(-c4ccccn4)cc3)nc(NC[C@@H](O)CO)nc12 [Compound 31, (R)-2-(1,2-dihydroxypropan-3-ylamino)-8-ethyl-4-[4-(pyridin-2-yl)benzylamino]pyrazolo[1,5-a]-1,3,5-triazine] | – |
| 0.02 µM | 0.031 µM | 0.021 µM | 2.3 µM | 0.049 µM | 0.3 µM | 0.18 µM | – | – | CC(C)c1cnn2c(NCc3ccc(-c4ccccn4)cc3)nc(N[C@H](CO)[C@@H](C)O)nc12 [Compound 13, Fumarate salt of (2R,3R)-2-(1,3-dihydroxybut-2-ylamino)-8-isopropyl-4-[4-(pyridin-2-yl)benzylamino]pyrazolo[1,5-a]-1,3,5-triazine] | – |
| – | – | 0.38 µM | 2.1 µM | – | 1.4 µM | 0.56 µM | 1.4 µM | – | CC(C)c1cnn2c(NCc3ccc(-c4ccccn4)cc3)nc(N3CCN(CCO)CC3)nc12 [Compound 30, 2-[4-[8-isopropyl-4-[[4-(pyridin-2-yl)phenyl]methylamino]pyrazolo[1,5-a]-1,3,5-triazin-2-yl]piperazin-1-yl]ethanol] | – |
